This is an account of results in US20160128339A1, “CHROMOBACTERIUM FORMULATIONS, COMPOSITIONS, METABLOITES AND THEIR USES” (priority 2011, published 2016).

The test system of one experiment is TSSM. The experiment is described as follows: TSSM control on field strawberry transplants. It counts as in vivo, Tetranychus urticae. The note with it: rate/acre: abamectin 16 fl. oz., bifenzate 1 lb + INDUCE, COHERE 16 fl. oz., spiromesifin 12 fl. oz. + INDUCE, fenpyroximate 32 fl. oz., hexythiazox 6 oz.; for Number of eggs TSSM/leaflet day 90 / Number of motile TSSM/leaflet day 90: before first spray. Here is the method:
The efficacy of five traditional compounds and MBI-203 ingredients were evaluated for TSSM control on field strawberry transplants at the Florida Gulf Coast Research and Education Center. Seedlings were transplanted in the Field (day 0), Each 12.5-ft. plot consisted of 20 plants. Plots were infested four times from day 55 through day 71 with 10 to 20 motile TSSM per plant. Seventeen treatments of various rates and schedules of application of miticides, some combined with an adjuvant, and a non-treated check were replicated four times in a RCB design. Treatments were applied using a hand held sprayer with a spray wand outfitted with a nozzle containing a 45-degree core and a number four disc. The sprayer was pressurized by CO2, to 40 psi, and calibrated to deliver 100 gal per acre. Samples were collected weekly from day 90 before first spray through 2 wks after the last application of treatments (day 154). Samples consisted of ten randomly selected leaflets per plot and were collected from the middle one-third stratum of the plants. Motile and egg TSSM were brushed from the leaflets onto rotating sticky discs and counted. No phytotoxicity was observed.

The test system of experiment [1] is green peach aphid (GPA) adults. As to the kind of experiment: Green peach aphid progeny production on treated pepper leaf discs. It counts as in vivo, Myzus persicae. Particulars: 1.0 μg/mL in acetone, 100 μL per leaf disc; 3 days. As to the method: MBI-203 at 3% v/v concentration was tested to determine the effect of the compound on the progeny production of green peach aphid (GPA) adults. Bioassays were performed by iteming pepper leaf discs with MBI-203 at 3% v/v. Pepper leaf discs (from 3-4 week old pepper plants) were cut in circles using a 23 mm cookie cutter, selecting a flat portion of tbe leaf to make sure the disc can be evenly laid flat on the agar plate. A 1% agar solution was melted by heating and 30 μL, poured in each petri plate (16 mm×35 mm vented, polystyrene petri plates), just enough to cover the bottom of the plate to prop leaf discs and maintain humidity. The agar was allowed to solidify by cooling at room temperature. Leaf disc treatment was performed by pouring the treatment solution into a glass petri dish. With the solution in the dish, leaf discs were treated by soaking, gently swirling the dish to completely soak and coat the leaf discs. Treatment of leaf discs by soaking was done for 1 minute. […] Progeny (early nymphal instars) were counted 3 days after adult exposure to treated leaf discs. […]
Two concentrations of pare violacein compound in acetone, 0.5 μg/mL and 1.0 μg/mL were used in the test to determine the effect of the compound on the progeny production of green peach aphid (GPA) adults. […] Progeny (early nymphal instars) were counted 3 days after adult exposure to treated leaf discs. […]

Experiment [2] concerns Green Peach Aphid adults (GPA). As to the kind of experiment: Green peach aphid choice repellency bioassay of extracts, fractions and pure compound. The note with it: violacein purified from F9 and F10. It counts as in vivo, Myzus persicae. As to the method:
Choice bioassays on Green Peach Aphid adults (GPA) were done using MBI-203 fractions and pure compound. Fractions and pure compound (violacein) obtained from the extraction of cell paste of C. substugae (MBI-203) were tested for insect efficacy through repellency bioassays. Pepper leaf discs (from 3-4 week old pepper plants) were cut in circles using a 23 mm cookie cutter, selecting a flat portion of the leaf to make sure the leaf disc can be evenly laid flat into the agar plate after treatment of the compound. One percent (%) agar in water was prepared. The 1% agar solution was melted by heating and poured into the 145 mm×20 mm petri plate, enough to cover the bottom surface of the plate to prop leaf discs and maintain humidity. The agar was allowed to solidify by cooling at room temperature.
Leaf disc treatment was done by pipetting gently 100 μL of MBI-203 extract unto the underside of the leaf disc. Treated leaf discs were then allowed to dry off by laying the disc flat unto a labeled 12-well plate cover. […]
All tests were done in three replications. […] Data for repellency of adults and nymphs was determined 24 hours post exposure of adults on treated leaf discs. The number of aphids (adults and nymphs) was counted and data recorded and analyzed, The percent repellency was computed as: % Repellency=100-{([N+A]“on petri dish”)/[N+A]“on petri dish” X100}, […]

Another experiment relates to M. hapla nematodes. As to the kind of experiment: In vitro 96-well nematode immobility bioassay. It counts as in vivo. Particulars: M. hapla J2; 100 μl of 4 mg/ml sample; 24 hour at 25° C. As to the method:
The fractions and pure compounds were dissolved in Dimethylsulfoxide (DMSO) and were tested in an in vitro 96-well plastic cell-culture plate bioassay. Around 15-20 nematodes in a 50 μl water solution were exposed to 100 μl of a 4 mg/ml of sample for a 24 hour period at 25° C. Once the incubation period was completed, results were recorded based on a visual grading of immobility of the juvenile nematodes (J2°s) in each well treated with sampler; each treatment was tested in well repetitions of four. […] Three controls were included in each trial; 1 positive (1% Avid) & 2 negative (DMSO & water). Both trials (T1) and (T2) were carried out using M. hapla nematodes.

As for `Cc1cc(C)c(C2=C(OC(=O)CC(C)(C)C)C3(CCCC3)OC2=O)c(C)c1` [Spiromesifin], in the experiment with TSSM, the “Number of eggs TSSM/leaflet day 90” value was 7.3, the “Number of motile TSSM/leaflet day 90” value was 2.8, the “Number of eggs TSSM/leaflet day 98” value was 5.3 and the “Number of eggs TSSM/leaflet day 105” value is on record as 7.3. In addition, in the experiment with TSSM, the “Number of eggs TSSM/leaflet day 111” value came to 5.0, the “Number of eggs TSSM/leaflet day 118” value turned out to be 1.5, the “Number of eggs TSSM/leaflet day 125” value is listed as 2.3 and the “Number of eggs TSSM/leaflet day 132” value is given as 2.8. Besides, in the experiment on TSSM, the “Number of eggs TSSM/leaflet day 139” value came to 0.8, the “Number of eggs TSSM/leaflet day 146” value is 4.5, the “Number of eggs TSSM/leaflet day 154” value is 25.5 and the “Number of motile TSSM/leaflet day 98” value was 2.3. In addition, in the experiment with TSSM, the “Number of motile TSSM/leaflet day 105” value is recorded as 2.0, the “Number of motile TSSM/leaflet day 111” value was 2.3, the “Number of motile TSSM/leaflet day 118” value stood at 0.5 and the “Number of motile TSSM/leaflet day 125” value was 0.8. Besides, in the experiment on TSSM, the “Number of motile TSSM/leaflet day 132” value was found to be 0.5, the “Number of motile TSSM/leaflet day 139” value came out at 2.5, the “Number of motile TSSM/leaflet day 146” value was 2.8 and the “Number of motile TSSM/leaflet day 154” value was determined as 6.0.
`O=C1NC(c2c[nH]c3ccc(O)cc23)=C/C1=C1\C(=O)Nc2ccccc21` [violacein]: the “reduction of progeny production compared to the negative control” value in experiment [1] is listed as “about 50%”. Moreover, in experiment [2], the repellency is 300%.
For Abamectin, in the experiment with TSSM, the “Number of eggs TSSM/leaflet day 90” value is 6.8, the “Number of motile TSSM/leaflet day 90” value is given as 8.5, the “Number of eggs TSSM/leaflet day 98” value is given as 17.0 and the “Number of eggs TSSM/leaflet day 105” value is reported as 26.5. In the experiment with TSSM, the “Number of eggs TSSM/leaflet day 111” value amounted to 12.0, the “Number of eggs TSSM/leaflet day 118” value was determined as 1.3, the “Number of eggs TSSM/leaflet day 125” value is listed as 2.3 and the “Number of eggs TSSM/leaflet day 132” value is given as 6.5. For the same molecule, in the experiment on TSSM, the “Number of eggs TSSM/leaflet day 139” value is recorded as 3.5, the “Number of eggs TSSM/leaflet day 146” value was determined as 3.5, the “Number of eggs TSSM/leaflet day 154” value amounted to 41.3 and the “Number of motile TSSM/leaflet day 98” value is on record as 4.5. Also, in the experiment on TSSM, the “Number of motile TSSM/leaflet day 105” value is recorded as 6.3, the “Number of motile TSSM/leaflet day 111” value worked out at 5.3, the “Number of motile TSSM/leaflet day 118” value was determined as 0.5 and the “Number of motile TSSM/leaflet day 125” value is recorded as 0.5. For the same molecule, in the experiment on TSSM, the “Number of motile TSSM/leaflet day 132” value stood at 3.0, the “Number of motile TSSM/leaflet day 139” value is listed as 6.3, the “Number of motile TSSM/leaflet day 146” value was 6.8 and the “Number of motile TSSM/leaflet day 154” value is 15.3.
The molecule Oligo-(β-hydroxybutyric acid) displayed an immobility in the experiment on M. hapla nematodes of 75%.
